Here are results for five molecules from patent publication US20110086759A1, “CHEMICAL COMPOUNDS” (SYNGENTA CROP PROTECTION, INC., priority 2007, published 2011).

Common to all, as to type: in vivo
For assay [1], the system named is Ipomea hederaceae (IPOHE). Kind of assay: Post-emergence biological efficacy, glasshouse pot test. To be noted: Ipomoea hederacea, 312 h; post-emergence, 1,000 g/ha, evaluated after 13 days (100=total damage; 0=no damage); read-out: Percentage damage caused to weed species, IPOHE. The gist of the method: (§1)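 Pot-grown weeds were sprayed 8 days after sowing with test compound in acetone/water (50:50) with 0.5% Tween 20 at 1000 or 250 g/ha. Glasshouse at 24/16° C day/night, 14 h light, 65% humidity. Damage scored 0-100 (100 = total damage) after 13 days.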

In assay [2] the test system is Alopecurus myosuroides (ALOMY). The assay is described as above. Conditions: 312 h, post-emergence, 1,000 g/ha, evaluated after 13 days (100=total damage; 0=no damage), read-out: Percentage damage caused to weed species, ALOMY. The procedure, abridged:
as §1

Assay [3] has as its system Amaranthus retoflexus (AMARE). The description is as above. Conditions: Amaranthus retroflexus, 312 h; post-emergence, 1,000 g/ha, evaluated after 13 days (100=total damage; 0=no damage); read-out: Percentage damage caused to weed species, AMARE. The gist of the method:
as §1

The test system of assay [4] is Setaria faberi (SETFA). The assay is described as above. Conditions: 312 h, post-emergence, 1,000 g/ha, evaluated after 13 days (100=total damage; 0=no damage), read-out: Percentage damage caused to weed species, SETFA. The gist of the method:
as §1

The subject of assay [5] is Solanum nigrum (SOLNI). Described as above. To be noted: 312 h, post-emergence, 1,000 g/ha, evaluated after 13 days (100=total damage; 0=no damage), read-out: Percentage damage caused to weed species, SOLNI. The procedure, abridged: as §1
For assay [6], the system named is Echinochloa crus-galli (ECHCG). The description is as above. Conditions: 312 h, post-emergence, 1,000 g/ha, evaluated after 13 days (100=total damage; 0=no damage), read-out: Percentage damage caused to weed species, ECHCG. The gist of the method:
as §1

For assay [7], the system named is Ipomea hederaceae (IPOHE). Briefly: Pre-emergence biological efficacy, glasshouse pot test. To be noted: Ipomoea hederacea, 312 h; pre-emergence, 1,000 g/ha, evaluated after 13 days (100=total damage; 0=no damage); read-out: Percentage damage IPOHE. The procedure, abridged: (§2)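 Damage rated 0–100 (100 = total kill) 13 days post-spray. Pots of standard soil were sown and sprayed after one day with test compound at 1000 or 250 g/ha in acetone/water (50:50) plus 0.5% Tween 20.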

In assay [8] the test system is Alopecurus myosuroides (ALOMY). Described as above. To be noted: 312 h, pre-emergence, 1,000 g/ha, evaluated after 13 days (100=total damage; 0=no damage), read-out: Percentage damage ALOMY. The gist of the method: as §2
Assay [9] has as its system Amaranthus retoflexus (AMARE). The assay is described as above. Conditions: Amaranthus retroflexus, 312 h; pre-emergence, 1,000 g/ha, evaluated after 13 days (100=total damage; 0=no damage); read-out: Percentage damage AMARE. The gist of the method:
as §2

The subject of assay [10] is Setaria faberi (SETFA). Described as above. Conditions: 312 h, pre-emergence, 1,000 g/ha, evaluated after 13 days (100=total damage; 0=no damage), read-out: Percentage damage SETFA. The procedure, abridged: as §2
Assay [11] deals with Solanum nigrum (SOLNI). Described as above. To be noted: 312 h, pre-emergence, 1,000 g/ha, evaluated after 13 days (100=total damage; 0=no damage), read-out: Percentage damage SOLNI. The procedure, abridged: as §2
Assay [12] deals with Echinochloa crus-galli (ECHCG). The description is as above. To be noted: 312 h, pre-emergence, 1,000 g/ha, evaluated after 13 days (100=total damage; 0=no damage), read-out: Percentage damage ECHCG. The gist of the method: as §2

As to `COC(=O)c1nc(C2CC2)nc(NC(C)C2CC2)c1Cl` (stereo not drawn) [Compound 4-171, 5-Chloro-2-cyclopropyl-4-(1-cyclopropylethyl-amino)-6-methoxy-carbonylpyrimidine], the pest or weed control at 1000 g/ha in assay [1] is 90%; in assay [2] it was 40%; in [3], 100%; in the assay on Setaria faberi (SETFA) [4], 90%; in the assay on Solanum nigrum (SOLNI) [5] it was 90%; in assay [6] it was 60%. Also, the pest or weed control at 1000 g/ha came to 100% in assay [7]; 30% in assay [8]; 90% in [9]; 40% in the assay with Setaria faberi (SETFA) [10]; 40% in the assay on Solanum nigrum (SOLNI) [11]; 70% in [12].
Turning to `COC(=O)c1nc(C2CC2)nc(NC(C)c2ccccc2)c1Cl` (stereo not drawn) [Compound 4-174, 5-Chloro-2-cyclopropyl-6-methoxycarbonyl-4-(1-phenylethyl-amino)pyrimidine], the pest or weed control at 1000 g/ha in assay [1] was 100%; in assay [2] it was 30%; in assay [3], 100%; in the assay with Setaria faberi (SETFA) [4] it was 90%; with Solanum nigrum (SOLNI) [5], 90%; in assay [6], 90%. Further, the pest or weed control at 1000 g/ha turned out to be 50% in [7]; 20% in assay [8]; 80% in assay [9]; 20% with Setaria faberi (SETFA) [10]; 70% with Solanum nigrum (SOLNI) [11]; 30% in assay [12].
As to `COC(=O)c1nc(C2CC2)nc(NC(C)c2ccc(F)cc2)c1Cl` (stereo not drawn) [Compound 4-175, 5-Chloro-2-cyclopropyl-4-[1-(4-fluorophenyl)ethyl-amino]-6-methoxy-carbonylpyrimidine], the pest or weed control at 1000 g/ha stood at 100% in assay [1]; 20% in [2]; 100% in [3]; 90% with Setaria faberi (SETFA) [4]; 100% with Solanum nigrum (SOLNI) [5]; 60% in assay [6]. Also, the pest or weed control at 1000 g/ha in assay [7] turned out to be 70%; in assay [8], 10%; in assay [9], 50%; with Setaria faberi (SETFA) [10], 0%; in the assay on Solanum nigrum (SOLNI) [11] it was 10%; in [12], 10%.
Turning to `COC(=O)c1nc(C2CC2)nc(NC(C)c2ccc(Cl)cc2)c1Cl` (stereo not drawn) [Compound 4-176, 5-Chloro-4-[1-(4-chlorophenyl)ethyl-amino]-2-cyclo-propyl-6-methoxy-carbonylpyrimidine], the pest or weed control at 1000 g/ha was 100% in assay [1]; 20% in assay [2]; 100% in assay [3]; 70% with Setaria faberi (SETFA) [4]; 100% in the assay on Solanum nigrum (SOLNI) [5]; 50% in assay [6]. Further, the pest or weed control at 1000 g/ha in assay [7] is 60%; in assay [8] it was 0%; in assay [9], 50%; in the assay on Setaria faberi (SETFA) [10], 0%; in the assay on Solanum nigrum (SOLNI) [11], 0%; in assay [12], 20%.
For the molecule `COC(=O)c1nc(C2CC2)nc(NC(C)c2ccc(Br)cc2)c1Cl` (stereo not drawn) [Compound 4-177, 4-[1-(4-Bromophenyl)ethyl-amino]-5-chloro-2-cyclopropyl-6-methoxycarbonyl-pyrimidine], the pest or weed control at 1000 g/ha in assay [1] worked out at 100%; in [2], 20%; in assay [3] it was 90%; in the assay on Setaria faberi (SETFA) [4], 40%; with Solanum nigrum (SOLNI) [5] it was 90%; in assay [6], 50%. Besides, the pest or weed control at 1000 g/ha in assay [7] was 20%; in [8] it was 0%; in [9], 20%; in the assay with Setaria faberi (SETFA) [10] it was 0%; in the assay with Solanum nigrum (SOLNI) [11], 0%; in assay [12], 0%.
